Test results published in US20090118242A1 (AlgoRx, priority 2002, published 2009).
Several values for one entry are separate records, joined by “and”; a condition that tells them apart may be missing. Equal entries are not always repeated.

What was measured:
[1] = tested on: animal models of inflammatory (formalin test) pain; conditions: administered locally; cited from earlier work
patients = conditions: cited from earlier work
[2] = design: species or system human; conditions: in vivo
Experimental: The pharmacokinetic parameters of Cmax, Tmax, AUC (0−tlast) and t½ were evaluated.

[3] = tested on: subjects with osteoarthritis of the knee; assay: Osteoarthritis of the Knee Safety Study: VAS pain score at the target knee; format: in vivo, human
Experimental: (§1) Each subject had 3 study visits: a Screening Day (Day −7 to −1), the Treatment Day (Day 0), and a Post-Treatment Day (scheduled for Day +2, +4, +7, or +14). On the Treatment Day the subject was randomized, pre-treatment evaluation was performed. The patients were brought into the procedure room, and a VAS pain score was taken (0 mm—no pain, 100 mm—extreme pain). Once the patient had marked his or her pain on the card, he/she was prepped for knee cannulation. Once the cannula was placed, the patient received by intra-articular infiltration, 3 mg/kg (maximum dose of 200 mg) of 2% lignocaine into the knee scheduled to be replaced.
(§2) VAS pain scores as well as verbal reports were taken immediately following administration, as well as prior to knee replacement surgery. No subjects discontinued from the study due to adverse events.
On the Post-Treatment Day, study evaluation was performed followed by the scheduled knee replacement, with intra-operative bone and soft tissue biopsies performed for subsequent examination. […] This therefore left the 3 placebo and 9 active patients from the 4 day, 7 day, and 14 day cohorts.

rats = conditions: systemic, final doses of 25 mg/kg or less; cited from earlier work
[4] = tested on: subjects undergoing transpositional osteotomy (bunionectomy); assay: Bunionectomy Efficacy Study: VAS pain at operation site and rescue medication; format: in vivo, human; conditions: for VAS pain score at operation site (mean +/− SEM): 1000 μg into wound, n = 11
Experimental: The primary efficacy endpoint was the proportion of subjects in each treatment group requiring opioid analgesia in the first 24 hours post-operatively. The proportions were compared amongst treatment groups using the Cochran-Haenszel test. Secondary efficacy end points included: i) proportion of subjects in each treatment group requiring opioid analgesia in the first 36 hour period post-operatively (Similarly, the proportions were compared amongst treatment groups using the Cochran-Haenszel test); ii) proportion of subjects in each treatment group requiring opioid analgesia in the 10 day period post-operatively (Similarly, the proportions were compared amongst treatment groups using the Cochran-Haenszel test); iii) time to first usage of opioid analgesia in each treatment group (a survival analysis approach will be used: the product-limit (Kaplan-Meier) method will be applied to time to first usage of opioid analgesia. The median time to first usage of opioid analgesia will be estimated in both treatment groups. Pairwise comparisons will be performed to test for equality of the survival curves between the 2 treatment groups using both the log-rank and the Wilcoxon test); iv) total usage of analgesia in each treatment group (the total usage of analgesia will be compared by an analysis of variance with treatment and center as independent variables. A pairwise comparison will be performed between the treatment groups); and v) VAS, assessment of pain at the site of operation in each treatment group. (The VAS score at each time point will be compared by an analysis of variance with treatment and center as independent variables. A pairwise comparison will be performed between the treatment groups). […] The efficacy analysis was performed on the data obtained ten days postoperatively. The safety analysis was performed based on the safety data for the entire study, including the 6 week and 12 week follow-up periods. The blind was broken at the time the efficacy analysis was performed. However, the individual treatment assignment was available to the statistical analysis group only. All other personnel involved in the study, including the Investigator, study monitor and proprietary staff, remained blinded until the entire study was completed.
The study was designed to include 40 evaluation subjects. […] Each subject had six (6) study visits: a Screening Day (Day −28 to −1), an Operation Day (Day 0), and four (4) Follow-up visits (scheduled for Days 3, 10 and weeks 6 and 12).
On Operation Day (Day 0) the following was performed: a) Pre-operation: Prior to the initiation of an ankle block, inclusion/exclusion criteria assessment was performed. […] Immediately prior to wound closure, the Investigator slowly dripped the study medication (4 mL) from a syringe into the wound, ensuring even tissue exposure. The wound was then be closed according to normal practices and procedures.
In the 24 hours following administration of study medication, vital signs (supine pulse rate and blood pressure) were recorded at 1, 2, 4 and 24 hours post administration. VAS assessment of pain at the operation site was performed at 1, 4, 8, 12 and 24 hours post administration. In those instances where VAS measurements coincide with blood sampling procedures, the VAS assessment was performed first. […] The quantity of each blood sample was 10 mL. Laboratory safety assessments, e.g., haematology, biochemistry, urinalysis were performed at 24 hours post administration. Adverse events were spontaneously reported by the subject and recorded. Rescue analgesia medication was provided to the subject if required (initially diclofenac 50 mg, repeated at 8-hourly intervals if necessary). When diclofenac was judged by the Investigator to provide inadequate pain relief then the subject was provided with alfentanil 1 mg, repeated at 6 hourly intervals, if necessary.

[5] = tested on: subjects with osteoarthritis of the knee; assay: Osteoarthritis of the Knee Safety Study: safety and tolerability of intra-articular purified capsaicin with local anesthetic; format: in vivo, human
Experimental: The primary objective of the study was to evaluate the safety and tolerability of intra-articular capsaicin, when co-administered with intra-articular local anesthetic, compared to placebo, in subjects with end-stage osteoarthritis of the knee, already scheduled to receive knee replacements.
The study was designed to include 16 evaluation subjects. […] Sixteen subjects completed the study.
Patients were treated randomly and in double-blind fashion in four treatment groups, with each group having a progressively longer interval between the intra-articular administration of study medication and subsequent total knee replacement (2, 4, 7, and 14 days). […] Gross and microscopic pathology analysis was completed for each treatment group before the next treatment group was treated.
as §1, §2

[6] = 1000 μg prior to wound closure, n=11
[7] = 10, 100, 300 μg intra-articular

CN(C)CCC=C1c2ccccc2CCc2ccccc21 [amitriptyline]
local antinociceptive action [1]: produced local antinociceptive actions

CNCCCN1c2ccccc2CCc2ccccc21 [desipramine]
local antinociceptive action [1]: produced local antinociceptive actions

CN1C(C(=O)Nc2ccccn2)=C(O)c2ccccc2S1(=O)=O [piroxicam]
patients experiencing gross bleeding and ulceration (patients): up to 4%

COc1cc(CNC(=O)CCCC/C=C/C(C)C)ccc1O [purified capsaicin, N-(4-hydroxy-3-methoxybenzyl)-8-methylnon-trans-6-enamide]
plasma concentrations in the 10 μg dose group compared with the 100 μg or 300 μg dose groups [2]: clearly lower | VAS reduction, prior to administration versus day of surgery ([3]; 9 active patients of the 4, 7 and 14 day cohorts, 10-300 μg pooled): 62±14% | median decrease from baseline to pre-operative time point in VAS for pain at target knee, versus placebo ([3]; all 3 capsaicin dose groups): substantially greater | treatment related indication of efficacy (VAS) ([3]; any of the dose levels (10 μg, 100 μg, 300 μg)): No clear treatment related indication of efficacy | effect on pain threshold (rats): did not elevate the pain threshold above normal range | VAS pain score at operation site (mean +/− SEM) ([4]; 8 hr): 5.5 +/− 2.3 | VAS pain score at operation site (mean +/− SEM) ([4]; 12 hr): 8.2 +/− 3.8 | VAS pain score at operation site (mean +/− SEM) ([4]; 24 hr): 1.9 +/− 1.0 | VAS pain score at operation site (mean +/− SEM) ([4]; 48 hr): 5.9 +/− 2.5 | subjects who did not rescue in 72 hours [4, 6]: 6 subjects | time at which individual subject required rescue [4, 6]: 1 h and 4 h and 5 h and 8 h and 12 h | duration of post-administration (hyper)algesic pain, individual subject ([5]; 100 μg dose group): 9 min | duration of post-administration (hyper)algesic pain, individual subjects ([5]; 300 μg dose group): 17 minutes and 25 minutes (2×) and 42 minutes | effects on laboratory safety parameters or vital signs [5, 7]: no treatment related effects on laboratory safety parameters or vital signs | effects on soft tissue, cartilage, or bone upon histopathological examination [5, 7]: no treatment related effects on soft tissue, cartilage, or bone | erythema, edema, or hemorrhage at the site of injection [5, 7]: no treatment related signs of erythema, edema, or hemorrhage | leakage of study drug from the joint space [5, 7]: low leakage | systemic side effects [5, 7]: No treatment related systemic side effects | gross and microscopic pathology ([5]; knee tissue at replacement 2-14 days after dose): normal
